Results published in patent EP4793271A1, “NEUROPROTECTIVE AGENT” (National Center of Neurology and Psychiatry, priority 2023, dated 2025).
Where two headings read alike, the source gives them in different places.

Key:
[1] = tested on: primary cultured cells of mouse fetus-derived dorsal root ganglia (DRGs); experiment: Suppression of axonal degeneration after axotomy in DRG explant culture; format: cell-based; conditions: minimum concentration at which axonal degeneration was suppressed (DI 0.3 or less), 24 hours after axotomy; for minimal effective concentration: Mus musculus, read-out: Evaluation on protection against degeneration
How it was run: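 Embryonic ICR mouse DRG explants were cultured 7–8 days in nicotinamide-free neuronal medium with NGF, then axotomized by removing the cell bodies. Compound (100 pM–10 µM final, 0.1% DMSO) was added within 30 min, and neurites were imaged 24 h later. The result is the lowest concentration giving degeneration index ≤0.3.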

[2] = target: T1, nicotinamide phosphoribosyl transferase (NAMPT) (Homo sapiens, UniProt P43490); experiment: NAMPT activity measurement (NMN fluorescence detection); format: biochemical; conditions: NAMPT recombinant protein, 10 µM Nam; for IC50: read-out: Evaluation on NAMPT inhibitory
T1 construct: purchased Medical & Biological Laboratories Co., Ltd. (MBL)
Protocol: The compound of the present invention was evaluated for the ability to influence the activity of nicotinamide phosphoribosyl transferase (NAMPT) which is an enzyme that metabolizes nicotinamide (Nam), not the target SARM1.
The enzymatic reaction of NAMPT was carried out by adding NAMPT recombinant protein (manufactured by Medical & Biological Laboratories Co., Ltd. (MBL)) to a reaction solution containing the substrate Nam, phosphoribosylpyrophosphate (PRPP), ATP, and the like (composition: […] (pH = 7.4), 2 µM ATP, 0.5 µM PRPP, 0.02% BSA, 2 µM DTT, 1.2 µM MgCl2, and 10 µM Nam). The amount of the reaction product NMN was detected by detecting the fluorescent signal of a fluorescent substance obtained through the reaction of 2-acetylbenzofuran with NMN using SpectraMax M2 (Molecular Devices) (excitation: 421 nm, fluorescence: 480 nm) (Moriya et al, Chemical Communications 2013, 49 11500). The test compound was added at final concentrations of 10 µM, 3 µM, 1 µM, 300 nM, 100 nM, 30 nM, 10 nM, and 3 nM to the NMN synthesis reaction system described above. The NMN-derived fluorescent signal was normalized against a control group and plotted as the function of the test compound concentrations, and the compound was evaluated for its NAMPT inhibitory effect by calculating IC50.
The IC50 value was evaluated as ∘ for ≥1 µM and as Δ for ≥0.1 µM.

hSARM1 = target: T2, hSARM1 (Homo sapiens, UniProt Q6SZW1); experiment: Human SARM1 activity measurement in HEK293 cells transiently transfected with ΔN-hSARM1 (PC6 fluorescent probe); format: cell-based; design: expressed in transfected cells; host or cells: HEK293, pcDNA3 expression vector
T2 sequence (Q6SZW1 28-724): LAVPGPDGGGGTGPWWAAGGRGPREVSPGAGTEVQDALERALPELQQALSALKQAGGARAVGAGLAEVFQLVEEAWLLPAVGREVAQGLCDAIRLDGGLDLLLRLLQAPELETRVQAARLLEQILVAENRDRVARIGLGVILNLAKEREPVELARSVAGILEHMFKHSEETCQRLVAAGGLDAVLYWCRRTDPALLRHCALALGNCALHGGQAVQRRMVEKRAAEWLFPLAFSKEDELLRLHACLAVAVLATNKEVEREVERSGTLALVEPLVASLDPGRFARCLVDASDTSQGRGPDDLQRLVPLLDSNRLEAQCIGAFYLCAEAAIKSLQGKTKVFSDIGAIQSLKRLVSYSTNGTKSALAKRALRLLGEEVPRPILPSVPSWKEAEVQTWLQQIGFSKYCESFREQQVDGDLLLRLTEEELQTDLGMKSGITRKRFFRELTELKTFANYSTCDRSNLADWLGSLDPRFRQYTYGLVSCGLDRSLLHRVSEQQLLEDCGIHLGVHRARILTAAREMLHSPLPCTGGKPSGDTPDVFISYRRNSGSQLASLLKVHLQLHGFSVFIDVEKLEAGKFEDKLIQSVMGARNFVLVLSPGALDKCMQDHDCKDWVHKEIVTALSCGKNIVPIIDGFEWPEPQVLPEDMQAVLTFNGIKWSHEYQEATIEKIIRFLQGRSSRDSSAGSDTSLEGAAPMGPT
How it was run: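 HEK293 cells in nicotinamide-free DMEM with 5 μM nicotinamide, transiently transfected with mitochondrial-targeting-deleted ΔN-hSARM1; PC6 base-exchange fluorescent probe (50 μM) plus compound (30 μM) added ~8 h post-transfection. Fluorescence (ex 405/em 525 nm) read ~48 h from transfection; inhibition % versus transfected DMSO control, untransfected background subtracted.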

[3] = inhibition rate, compound 30 µM, PC6 50 µM, HEK293 cells expressing ΔN-hSARM1, approximately 48 hours from transfection, read-out: Evaluation on hSARM1 inhibitory

T1 sequence (P43490 whole entry, species assumed): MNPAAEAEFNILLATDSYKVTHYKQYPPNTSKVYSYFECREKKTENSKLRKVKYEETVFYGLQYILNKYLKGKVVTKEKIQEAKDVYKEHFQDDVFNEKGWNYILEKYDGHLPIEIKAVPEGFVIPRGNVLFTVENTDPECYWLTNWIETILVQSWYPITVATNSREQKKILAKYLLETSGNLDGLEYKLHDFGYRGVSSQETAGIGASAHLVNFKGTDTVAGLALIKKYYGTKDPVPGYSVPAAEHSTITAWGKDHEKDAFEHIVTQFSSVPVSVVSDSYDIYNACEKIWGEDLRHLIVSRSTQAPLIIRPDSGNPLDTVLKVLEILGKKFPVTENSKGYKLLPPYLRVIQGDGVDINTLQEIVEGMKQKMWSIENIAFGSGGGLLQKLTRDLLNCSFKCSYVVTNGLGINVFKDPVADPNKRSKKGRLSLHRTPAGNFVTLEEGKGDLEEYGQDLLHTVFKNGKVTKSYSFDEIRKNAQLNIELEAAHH

O=C(NCc1ccc(NC(=O)c2ccc(OC(F)(F)F)cc2)nc1)c1cccnc1 [compound 87]
minimal effective concentration [1]: ≤ 0.01 µM | Evaluation on NAMPT inhibitory [2]: ○ | inhibition at 30 µM (hSARM1; [3]): > 50%

O=C(NCc1ccc(NC(=O)C2CCC2)cc1)c1cccnc1 [compound 109]
minimal effective concentration [1]: ≤ 0.01 µM | Evaluation on NAMPT inhibitory [2]: ○ | inhibition at 30 µM (hSARM1; [3]): > 75%

O=C(NCc1ccc(NC(=O)c2ccc3ccccc3c2)nc1)c1cccnc1 [Compound 127]
minimal effective concentration [1]: ≤ 0.01 µM | IC50 [2]: ≥ 0.1 µM | inhibition at 30 µM (hSARM1; [3]): > 75%

O=C(NCc1ccc(NC(=O)c2ccc(F)cc2F)nc1)c1cccnc1 [Compound 139]
minimal effective concentration [1]: ≤ 0.01 µM | Evaluation on NAMPT inhibitory [2]: ○ | inhibition at 30 µM (hSARM1; [3]): > 25%

O=C(C#Cc1ccccc1)Nc1ccc(CNC(=O)c2cccnc2)cn1 [Compound 184]
minimal effective concentration [1]: 0.01 to 0.1 µM | Evaluation on NAMPT inhibitory [2]: ○ | inhibition at 30 µM (hSARM1; [3]): > 50%

COc1ccc(C(=O)Nc2ccc(CNC(=O)c3cccnc3)cn2)cc1 [Compound 129]
minimal effective concentration [1]: ≤ 0.01 µM | Evaluation on NAMPT inhibitory [2]: ○ | inhibition at 30 µM (hSARM1; [3]): > 75%

COc1cccc(OCCNC(=O)/C=C/c2cccnc2)c1 [compound 19]
minimal effective concentration [1]: ≤ 0.01 µM | IC50 [2]: ≥ 0.1 µM | inhibition at 30 µM (hSARM1; [3]): > 75%

O=C(NCc1ccc(CNC(=O)c2ccccc2)nc1)c1cccnc1 [Compound 153]
minimal effective concentration [1]: 0.01 to 0.1 µM | Evaluation on NAMPT inhibitory [2]: ○ | inhibition at 30 µM (hSARM1; [3]): > 75%

CC(C)CC(=O)Nc1ccc(CNC(=O)c2cccnc2)cn1 [Compound 162]
minimal effective concentration [1]: ≤ 0.01 µM | Evaluation on NAMPT inhibitory [2]: ○ | inhibition at 30 µM (hSARM1; [3]): > 25%

O=C(NCCOCCOc1ccccc1)c1cccnc1 [compound 98]
minimal effective concentration [1]: 0.01 to 0.1 µM | Evaluation on NAMPT inhibitory [2]: ○ | inhibition at 30 µM (hSARM1; [3]): > 10%

Cc1ccccc1C(=O)Nc1ccc(CNC(=O)c2cccnc2)cn1 [Compound 130]
minimal effective concentration [1]: ≤ 0.01 µM | Evaluation on NAMPT inhibitory [2]: ○ | inhibition at 30 µM (hSARM1; [3]): > 75%

C#CCOc1cncc(C(=O)Nc2ccc(CNC(=O)c3cccnc3)cc2)c1 [compound 67]
minimal effective concentration [1]: ≤ 0.01 µM | IC50 [2]: ≥ 0.1 µM | inhibition at 30 µM (hSARM1; [3]): > 75%

O=C(NCCOCCOc1ccc(CNC(=O)c2ccccc2)cc1)c1cccnc1 [compound 13]
minimal effective concentration [1]: 0.01 to 0.1 µM | Evaluation on NAMPT inhibitory [2]: ○ | inhibition at 30 µM (hSARM1; [3]): > 75%

CC(=O)NCc1ccc(OCCOCCNC(=O)c2cccnc2)cc1 [compound 21]
minimal effective concentration [1]: ≤ 0.01 µM | Evaluation on NAMPT inhibitory [2]: ○ | inhibition at 30 µM (hSARM1; [3]): > 50%

O=C(NCc1ccc(NC(=O)c2cccc(C(F)(F)F)c2)nc1)c1cccnc1 [compound 82]
minimal effective concentration [1]: ≤ 0.01 µM | Evaluation on NAMPT inhibitory [2]: ○ | inhibition at 30 µM (hSARM1; [3]): > 75%

O=C(/C=C/c1cccnc1)NCCCOc1ccc(CNC(=O)c2ccccc2)cc1 [compound 16]
minimal effective concentration [1]: ≤ 0.01 µM | IC50 [2]: ≥ 0.1 µM | inhibition at 30 µM (hSARM1; [3]): > 75%

O=C(NCc1ccc(NC(=O)c2ccccc2)c(F)c1)c1cccnc1 [compound 110]
Evaluation on protection against degeneration [1]: A (A ≤ 0.01 µM) | Evaluation on NAMPT inhibitory [2]: ○ | inhibition at 30 µM (hSARM1; HEK293, read-out: Evaluation on hSARM1 inhibitory): > 25%

O=C(COc1ccc(C(F)(F)F)cc1)Nc1ccc(CNC(=O)c2cccnc2)cn1 [Compound 176]
minimal effective concentration [1]: 0.01 to 0.1 µM | IC50 [2]: ≥ 0.1 µM | inhibition at 30 µM (hSARM1; [3]): > 75%

COc1cccc(OCCCNC(=O)/C=C/c2cccnc2)c1 [compound 18]
minimal effective concentration [1]: ≤ 0.01 µM | IC50 [2]: ≥ 0.1 µM | inhibition at 30 µM (hSARM1; [3]): > 75%

Cc1ccc(C(=O)Nc2ccc(CNC(=O)/C=C/c3cccnc3)cn2)cc1 [compound 78]
minimal effective concentration [1]: ≤ 0.01 µM | Evaluation on NAMPT inhibitory [2]: ○ | inhibition at 30 µM (hSARM1; [3]): > 75%

O=C(NCc1ccc(NC(=O)c2ccccc2)c(Cl)c1)c1cccnc1 [Compound 111]
minimal effective concentration [1]: ≤ 0.01 µM | Evaluation on NAMPT inhibitory [2]: ○ | inhibition at 30 µM (hSARM1; [3]): > 10%

O=C(/C=C/c1ccccc1)Nc1ccc(CNC(=O)c2cccnc2)cn1 [compound 74]
minimal effective concentration [1]: 0.01 to 0.1 µM | Evaluation on NAMPT inhibitory [2]: ○ | inhibition at 30 µM (hSARM1; [3]): > 75%

Cc1ccc(CC(=O)Nc2ccc(CNC(=O)c3cccnc3)cn2)cc1 [Compound 143]
minimal effective concentration [1]: ≤ 0.01 µM | IC50 [2]: ≥ 0.1 µM | inhibition at 30 µM (hSARM1; [3]): > 75%

O=C(NCc1ccc(NC(=O)c2ccccc2F)nc1)c1cccnc1 [Compound 133]
minimal effective concentration [1]: ≤ 0.01 µM | Evaluation on NAMPT inhibitory [2]: ○ | inhibition at 30 µM (hSARM1; [3]): > 75%

O=C(CCc1ccccc1)Nc1ccc(CNC(=O)c2cccnc2)cn1 [Compound 115]
minimal effective concentration [1]: ≤ 0.01 µM | Evaluation on NAMPT inhibitory [2]: ○ | inhibition at 30 µM (hSARM1; [3]): > 75%

COc1cccc(OCCOCCNC(=O)c2cccnc2)c1 [compound 99]
minimal effective concentration [1]: 0.01 to 0.1 µM | Evaluation on NAMPT inhibitory [2]: ○ | inhibition at 30 µM (hSARM1; [3]): > 50%

O=C(CNC(=O)c1cccnc1)NCCCCCCNC(=O)CNC(=O)c1cccnc1 [compound 41]
minimal effective concentration [1]: ≤ 0.01 µM | Evaluation on NAMPT inhibitory [2]: ○ | inhibition at 30 µM (hSARM1; [3]): > 75%

O=C(NCCCC1NC(=O)C(CCCNC(=O)c2cccnc2)NC1=O)c1cccnc1 (stereo not drawn) [compound 103]
minimal effective concentration [1]: 0.01 to 0.1 µM | Evaluation on NAMPT inhibitory [2]: ○ | inhibition at 30 µM (hSARM1; [3]): > 10%

C#CCOCCOCCNC(=O)c1cccnc1 [compound 11]
minimal effective concentration [1]: 0.01 to 0.1 µM | Evaluation on NAMPT inhibitory [2]: ○ | inhibition at 30 µM (hSARM1; [3]): > 10%

O=C(NCc1ccc(NC(=O)c2ccc(Cl)cc2)nc1)c1cccnc1 [Compound 118]
minimal effective concentration [1]: ≤ 0.01 µM | Evaluation on NAMPT inhibitory [2]: ○ | inhibition at 30 µM (hSARM1; [3]): > 75%

O=C(Cc1ccc(F)cc1)Nc1ccc(CNC(=O)c2cccnc2)cn1 [Compound 144]
minimal effective concentration [1]: ≤ 0.01 µM | IC50 [2]: ≥ 0.1 µM | inhibition at 30 µM (hSARM1; [3]): > 75%
